Key:
human neutrophils [1] = assay: Chemotaxis assay in human neutrophils; type: cell-based; settings: Neutrophil, read-out: EC50 Chemotaxis
human neutrophils [2] = assay: Ca2+ mobilization in human neutrophils; type: cell-based; settings: Neutrophil, read-out: EC50 Ca2+ mobilization
[3] = tested on: wild-type nontransfected HL-60 cells; assay: Ca2+ mobilization in wild-type nontransfected HL-60 cells; settings: control cells which do not express FPRs

Row | Structure (SMILES) | EC50 (human neutrophils [1]) | EC50 (human neutrophils [2]) | Ca2+ flux response in wild-type (nontransfected, undifferentiated) HL-60 cells [3]
1 | COc1cccc(Cc2cc(C)nn(CC(=O)Nc3ccc4c(c3)OCO4)c2=O)c1 [14m, N-Benzo[1,3]dioxol-5-yl-2-[5-(3-methoxybenzyl)-3-methyl-6-oxo-6H-pyridazin-1-yl]-acetamide] | 1200 ± 600 nM |  | 
2 | COc1cccc(Cc2cc(C)nn(CC(=O)Nc3ccc([N+](=O)[O-])cc3)c2=O)c1 [14p, 2-[5-(3-Methoxybenzyl)-3-methyl-6-oxo-6H-pyridazin-1-yl]-N-(4-nitrophenyl)-acetamide] | 1900 ± 600 nM | 21700 ± 4200 nM | 
3 | COc1cccc(Cc2cc(C)nn(CC(=O)Nc3ccc(Br)cc3)c2=O)c1 [14a, N-(4-Bromophenyl)-2-[5-(3-methoxybenzyl)-3-methyl-6-oxo-6H-pyridazin-1-yl]-acetamide] |  |  | no response was observed
